Where a name gives a salt, the structure may show the parent alone.

Consider six compounds from US8742110B2, “Spiroxazolidinone compounds” (Merck Sharp & Dohme Corp., priority 2010, dated 2014).

Chain of SSTR5 (P35346 whole entry): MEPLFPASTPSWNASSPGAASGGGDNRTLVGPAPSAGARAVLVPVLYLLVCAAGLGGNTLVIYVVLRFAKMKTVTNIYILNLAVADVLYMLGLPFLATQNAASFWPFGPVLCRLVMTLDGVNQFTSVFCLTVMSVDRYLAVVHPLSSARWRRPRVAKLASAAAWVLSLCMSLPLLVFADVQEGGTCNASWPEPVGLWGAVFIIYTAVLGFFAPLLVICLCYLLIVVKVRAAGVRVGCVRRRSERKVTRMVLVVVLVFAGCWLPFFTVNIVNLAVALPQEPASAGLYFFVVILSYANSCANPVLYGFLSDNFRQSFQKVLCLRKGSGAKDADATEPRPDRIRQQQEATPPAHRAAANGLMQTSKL

The assay concerns the target SSTR5 (Homo sapiens (Human), UniProt P35346). In words: SSTR5 binding assay. The following applies: CHO-K1 membranes expressing cloned human SSTR5. Summed up: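 Competition binding on membranes from CHO-K1 cells stably expressing cloned human receptor, using radiolabeled somatostatin in 50 mM Tris-HCl pH 7.8 with EGTA, MgCl2 and protease inhibitors. Unlabeled compounds tested from 0.01 nM to 10,000 nM.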
Consider `O=C(O)c1ccc(N2CC3(CCN(Cc4nc(-c5ccccc5)oc4-c4ccccc4)CC3)OC2=O)cc1` [Example 6-34, 4-{8-[(2,5-Diphenyl-1,3-oxazol-4-yl)methyl]-2-oxo-1-oxa-3,8-diazaspiro[4.5]dec-3-yl}benzoic acid, TFA salt], for which the IC50 came to 86 nM. As for `CC(C)(C)c1nc(-c2cc(F)c(F)cc2F)c(CN2CCC3(CC2)CN(c2ccc(C(=O)O)cc2)C(=O)O3)s1` [Example 6-35, 4-(8-{[2-tert-Butyl-4-(2,4,5-trifluorophenyl)-1,3-thiazol-5-yl]methyl}-2-oxo-1-oxa-3,8-diazaspiro[4.5]dec-3-yl)benzoic acid, TFA salt], the figure is 1.74 nM; as for `O=C(O)c1ccc(N2CC3(CCN(Cc4nc5ccccn5c4-c4cc(F)c(F)cc4F)CC3)OC2=O)cc1` [Example 6-36, 4-(2-Oxo-8-{[3-(2,4,5-trifluorophenyl)imidazo[1,2-a]pyridin-2-yl]methyl}-1-oxa-3,8-diazaspiro[4.5]dec-3-yl)benzoic acid, TFA salt], 1200 nM; as for `O=C(O)c1ccc(N2CC3(CCN(Cc4c(-c5ccccc5)nc5ccccn45)CC3)OC2=O)cc1` [Example 6-37, 4-{2-Oxo-8-[(2-phenylimidazo[1,2-a]pyridin-3-yl)methyl]-1-oxa-3,8-diazaspiro[4.5]dec-3-yl}benzoic acid, TFA salt], 13.4 nM. As for `Cc1nc2ccccn2c1CN1CCC2(CC1)CN(c1ccc(C(=O)O)cc1)C(=O)O2` [Example 6-38, 4-{8-[(2-Methylimidazo[1,2-a]pyridin-3-yl)methyl]-2-oxo-1-oxa-3,8-diazaspiro[4.5]dec-3-yl}benzoic acid, TFA salt], the figure is 1010 nM. As for `Cc1cccn2c(-c3cc(F)c(F)cc3F)c(CN3CCC4(CC3)CN(c3ccc(C(=O)O)cc3)C(=O)O4)nc12` [Example 6-39, 4-(8-{[8-Methyl-3-(2,4,5-trifluorophenyl)imidazo[1,2-a]pyridin-2-yl]methyl}-2-oxo-1-oxa-3,8-diazaspiro[4.5]dec-3-yl)benzoic acid, TFA salt], the figure is 442 nM.

What is called IC50 is the concentration at which inhibition is half-maximal.
